According to ChEMBL document CHEMBL1127685, “A novel 3-substituted benzazepinone growth hormone secretagogue (L-692,429)” (1994):

Organism: Rattus norvegicus
Test: In vitro dose required for stimulation of GH release from rat pituitary cells
Format: functional
Settings: Pituitary gland cell, read-out: ED50 (the source's name)
In the case of CC(C)(N)CC(=O)NC1Cc2ccccc2N(Cc2ccc(-c3ccccc3-c3nn[nH]n3)cc2)C1=O (stereo not given), the EC50 is reported as 2 µM. For CC(C)(N)CC(=O)NC1CCc2ccccc2N(Cc2ccc(-c3ccccc3C(=O)O)cc2)C1=O (stereo not given), the EC50 was 3.2 µM. With CC(C)(N)CC(=O)N[C@@H]1CCc2ccccc2N(Cc2ccc(-c3ccccc3-c3nn[nH]n3)cc2)C1=O the EC50 was 0.06 µM. CC(C)(N)CC(=O)NC1CCCc2ccccc2N(Cc2ccc(-c3ccccc3-c3nn[nH]n3)cc2)C1=O (stereo not given) gave an EC50 of 8 µM. In the case of CC(C)(N)CC(=O)NC1CCc2ccccc2N(Cc2ccc(-c3ccccc3-c3nn[nH]n3)cc2)C1=O [L-158432], the EC50 is reported as 0.16 µM.
